Results as given in PMC4471902, “Block of NMDA receptor channels by endogenous neurosteroids: implications for the agonist induced conformational states of the channel vestibule” (Scientific Reports, 2015).
Where “and” joins values, the source holds several entries; their conditions need not be identical. Equal values may be shown once. Where a name gives a salt, the structure may show the parent alone.

What was measured:
[1] = Steroid concentration in the cytoplasmic membrane (erythrocyte membrane ghosts, HPLC-MS); type: physicochemical, rat
Experimental: All animal manipulations were conducted in accordance with the Animal Protection Code of the Czech Republic and corresponding directives of the European Community Council (2010/63/EC). Experiments were approved by the Animal Care and Use Committee of the Institute of Physiology of the Academy of Sciences of the Czech Republic. Blood was collected from one adult Wistar rat, heparinized, and spun down at 1,000 g for 10 min. Cells were washed once with PBS, briefly spun down and the pellet resuspended in a minimum amount of ECS. Cells were counted and 200 μl aliquots (~3*10^9 cells) were taken for the experiment. Cell membranes were prepared by 30 min erythrocyte lysis in distilled water followed by centrifugation at 25,000 g for 10 min and resuspension in 200 μl of ECS. Cell membranes were incubated for 2 min with PA-S solution in ECS at the final volume of 500 μl, followed by a spin down at 20,000 g for 2 min. Supernatants were taken for liquid chromatography-mass spectrometry analysis (HPLC-MS). Solution of PA-S without membranes served as a control. […]
PA-S concentration was assessed in ECS to which steroid was added from its 20 mM stock solution ([PA-S]ECS) and in the supernatant of a solution containing er ythroc yte membranes ([PA-S]EC S+M) (see Methods). The concentration of steroid in the membrane ([PA-S]M) was calculated from the difference of [PA-S] in the control solution ([PA-S] EC S) and that in the supernatant containin g m embranes ([PA-S]EC S+M) accordin g to [PA-S]M = ([PA-S]ECS - [PA-S]EC S+M) · Vsolu tion /Vmembrane (where V denotes volume). Data points were fitted to the linear equation of the following form y = 38.8 * x; The partition coeffici ent for P A-S was calculated […]
7.4) determined using the online program CHEMICALIZE (http://www.chemicalize.org/).
Data points represent the mean of two independent measurements. The values of the partition coefficient (log D) of PA-S in the erythrocyte cytoplasmic membrane was calculated assuming 136 μm2 as the mean surface area of a rat erythroc yte and 4 nm as the mean membrane thickness. […]

[2] = Light scattering analysis of particle size in ECS; type: physicochemical
Experimental: Light scattering (Zetasizer Nano ZS, Malvern Instruments, United Kingdom) was used to characterize particle size of PA-S in ECS. PA-S was dissolved in DMSO at a concentration of 20 mM and then in the ECS at a final concentration of 5 nM to 150 μM PA-S. This solution was sonicated (Ultrasonic Sonorex Super RK 103 H, Bandelin electronic GmbH & Co. KG, Germany) for 1 min. Light scattering analysis was repeated six times for each sample at 25 °C.

CC(=O)[C@H]1CC[C@H]2[C@@H]3CC[C@@H]4C[C@H](OS(=O)(=O)O)CC[C@]4(C)[C@H]3CC[C@]12C [PA-S, 20-oxo-5β-pregnan-3α-yl sulfate]
equilibrium surface density S ([1]; calculated for the PA-S IC50 value of 55.7 µM): 4.32 10−9 M m −2
flux Jout of steroid from the membrane into the aqueous phase ([1]; product of [PA-S]membrane and koff): at least 4.3 μM s^−1 m^−2
slope of linear fit of [PA-S]M versus aqueous concentration ([1]; y = slope * x): 38.8
PA-S concentration at which two particle sizes are present ([2]; ECS): > 300 nM
PA-S concentration at which two particle sizes were observed ([2]; ECS): ≥ 0.4 µM
small particle size (single steroid molecule) ([2]; ECS): ~ 2.5 nm
critical aggregate concentration (CAC) ([2]; ECS, 25 °C): ~ 300 nM and 300 nM
size of aggregates ([2]; ECS, concentrations relevant to effect at the NMDAR): ~ 400 nm
molecules present in the ECS in aggregates ([2]; at the PA-S concentration corresponding to its IC50 at NMDARs): 99.5%
